Assay results reported in the supplement of paper PMC10307832.

Columns and labels:
Assay in all cases: relative viability (nuclei count vs DMSO), 5 days (fraction); higher = more cells survive
[1] = compound: COc1cc2nc(N3CCCN(C)CC3)nc(NC3CCN(Cc4ccccc4)CC3)c2cc1OC + Cc1cc(Nc2cc(N3CCN(C)CC3)nc(Sc3ccc(NC(=O)C4CC4)cc3)n2)n[nH]1 [Tozasertib] (partner 0.1 µM)
How it was run: (§1)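 Lung cancer cell lines in 1536-well plates were dosed by pin tool the day after seeding, either with one drug alone or with a fixed anchor-drug dose plus five library-drug doses (not always all listed) in √10 steps. After 5 days, cells were fixed and their nuclei stained in one step (final 0.05% Triton X-100, 1% formaldehyde, 1 ug/ml Hoechst), then counted on 4× images. Relative viability is the nuclei count in treated wells divided by that in vehicle wells. Values are medians of duplicate plates.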

AZD6482 + Palbociclib = compound: Cc1cc([C@@H](C)Nc2ccccc2C(=O)O)c2nc(N3CCOCC3)cc(=O)n2c1 [AZD6482] + CC(=O)c1c(C)c2cnc(Nc3ccc(N4CCNCC4)cn3)nc2n(C2CCCC2)c1=O [Palbociclib] (partner 0.5 µM)
How it was run: as §1

AZD6482 + Navitoclax = compound: Cc1cc([C@@H](C)Nc2ccccc2C(=O)O)c2nc(N3CCOCC3)cc(=O)n2c1 [AZD6482] + CC1(C)CCC(c2ccc(Cl)cc2)=C(CN2CCN(c3ccc(C(=O)NS(=O)(=O)c4ccc(N[C@H](CCN5CCOCC5)CSc5ccccc5)c(S(=O)(=O)C(F)(F)F)c4)cc3)CC2)C1 [Navitoclax] (partner 0.5 µM)
How it was run: as §1

AZD6482 + Linsitinib = compound: Cc1cc([C@@H](C)Nc2ccccc2C(=O)O)c2nc(N3CCOCC3)cc(=O)n2c1 [AZD6482] + C[C@]1(O)C[C@@H](c2nc(-c3ccc4ccc(-c5ccccc5)nc4c3)c3c(N)nccn32)C1 [Linsitinib] (partner 1 µM)
How it was run: as §1

Cell Line | relative viability ([1]; first compound 0.2 µM) | relative viability ([1]; first compound 0.6325 µM) | relative viability ([1]; first compound 2 µM) | relative viability ([1]; first compound 6.325 µM) | relative viability (AZD6482 + Palbociclib; first compound 0.08 µM) | relative viability (AZD6482 + Palbociclib; first compound 0.253 µM) | relative viability (AZD6482 + Palbociclib; first compound 0.8 µM) | relative viability (AZD6482 + Palbociclib; first compound 2.53 µM) | relative viability (AZD6482 + Palbociclib; first compound 8 µM) | relative viability (AZD6482 + Navitoclax; first compound 0.08 µM) | relative viability (AZD6482 + Navitoclax; first compound 0.253 µM) | relative viability (AZD6482 + Navitoclax; first compound 0.8 µM) | relative viability (AZD6482 + Navitoclax; first compound 2.53 µM) | relative viability (AZD6482 + Navitoclax; first compound 8 µM) | relative viability (AZD6482 + Linsitinib; first compound 0.08 µM) | relative viability (AZD6482 + Linsitinib; first compound 0.253 µM) | relative viability (AZD6482 + Linsitinib; first compound 0.8 µM) | relative viability (AZD6482 + Linsitinib; first compound 2.53 µM) | relative viability (AZD6482 + Linsitinib; first compound 8 µM)
LU99A | 0.238 | 0.255 | 0.283 | 0.262 | 0.373 | 0.368 | 0.397 | 0.353 | 0.311 | 0.753 | 0.757 | 0.81 | 0.515 | 0.529 | 0.445 | 0.44 | 0.434 | 0.331 | 0.361
HCC-827 | 0.406 | 0.45 | 0.374 | 0.423 | 0.437 | 0.504 | 0.435 | 0.378 | 0.229 | 0.938 | 1.01 | 1.07 | 0.899 | 0.898 | 0.939 | 0.944 | 0.926 | 0.861 | 0.775
LK-2 | 0.199 | 0.178 | 0.187 | 0.19 | 0.732 | 0.698 | 0.688 | 0.54 | 0.342 | 0.779 | 0.716 | 0.932 | 0.681 | 0.782 | 0.587 | 0.521 | 0.791 | 0.513 | 0.421
HCC-366 | 0.117 | 0.108 | 0.105 | 0.0544 | 0.334 | 0.367 | 0.385 | 0.35 | 0.229 | 0.937 | 1.01 | 1.11 | 0.901 | 0.908 | 0.383 | 0.438 | 0.477 | 0.151 | 0.141
BEN | 0.532 | 0.47 | 0.576 | 0.525 | 0.442 | 0.452 | 0.446 | 0.449 | 0.466 | 0.058 | 0.0744 | 0.0638 | 0.0645 | 0.178 | 0.884 | 0.93 | 0.988 | 0.717 | 0.85
NCI-H23 | 0.423 | 0.385 | 0.481 | 0.337 | 0.471 | 0.421 | 0.487 | 0.396 | 0.325 | 0.828 | 0.696 | 0.785 | 0.578 | 0.568 | 0.532 | 0.477 | 0.533 | 0.338 | 0.57
NCI-H1395 | 0.784 | 0.705 | 0.835 | 0.81 | 0.49 | 0.486 | 0.482 | 0.401 | 0.456 | 0.831 | 0.822 | 0.803 | 0.542 | 0.733 | 0.879 | 0.639 | 0.661 | 0.436 | 0.732
201T | 0.973 | 0.908 | 0.946 | 0.924 | 0.351 | 0.354 | 0.309 | 0.326 | 0.347 | 1.22 | 1.17 | 1.19 | 1.12 | 1.17 | 1.03 | 0.969 | 1.01 | 0.808 | 0.867
